Publication PMC9501129 (Pharmaceutics, 2022)
Where two headings read alike, the source gives them in different places.

Experiments:
pregnant rabbits = details: CAB orally 0, 30, 500, or 2000 mg/kg/day, gestational day 7 to 19; cited from earlier work
[1] = cited from earlier work
[2] = system: simian/human immunodeficiency virus (SHIV); details: long-acting CAB; cited from earlier work
[3] = Maternal plasma drug concentration in mouse pregnancy model (HPLC-MSMS); format: in vivo, C57BL/6J mice; details: pregnant mice, mean (SD), n=2; for concentration at 24 h / Cmax at 1 h: female, C57BL/6J, mouse, plasma; for concentration at 24 h: oral, read-out: Plasma Concentration 24 h (Cmin)
Excerpt: All animal experiments were approved by the University Health Network Animal Use Committee (protocol #2575) and performed according to the policies and guidelines of the Canadian Council on Animal Care. C57BL/6J mice bred in-house (original breeders from Jackson Laboratory RRID:IMSR JAX:000664) were maintained under a 12-h light/dark cycle, with ad libitum access to food and water. Animals were acclimated to their surroundings for 1 week prior to experiment initiation. Males were isolated for 7 days prior to mating. Female mice (7–12 weeks of age) were mated with males at a ratio of 2:1. Presence of vaginal plug was denoted as gestational day 0.5 (GD0.5). Pregnancy was confirmed by weight gain of >1.5 g on GD9.5 and >3 g on GD13.5. […] The equivalent mouse mg/kg dose was calculated based on the human dose divided by an assumed average human weight of 60 kg. The dose of TDF/FTC was kept constant across the different dosages of BIC and CAB. On GD15.5, mice underwent saphenous bleed 24 h after the GD14.5 dose administration (trough). Immediately after the saphenous bleed, mice were dosed with the appropriate drug regimen and sacrificed 1 h post-treatment (peak), at which time blood was collected by cardiac puncture and amniotic fluid was collected by dissecting the uterus, puncturing the amniotic sac, and draining the amniotic fluid into a sterile dish. Amniotic fluid was pooled for the entire litter. Samples from 2 dams per arm were analyzed for drug levels.
BIC and CAB levels in plasma and amniotic fluid were determined using a validated, simultaneous assay using high-performance liquid chromatography coupled with tandem mass spectrometry (HPLC-MSMS). Briefly, 50 μL of plasma or amniotic fluid was spiked with internal standard (ritonavir-d6) followed by protein precipitation with acetonitrile and filtration. Filtrates were diluted 1:9 with ammonium acetate buffer (10 mM) and analyzed by the HPLC-MSMS system, consisting of a Shimadzu Nexera XR high-performance liquid chromatograph (Shimadzu, Columbia, MD, USA) coupled with a SCIEX API 4500 QqQ mass spectrometer (SCIEX, Concord, ON, Canada). Chromatographic separation by Mobile Phase A (10% methanol, 5% 50 mM ammonium acetate, 85% 0.25% acetic acid pH 3.6 ± 0.2) and Mobile Phase B (90% methanol, 5% 50 mM ammonium acetate, 5% 0.25% acetic acid pH 6.6 ± 0.2) was performed under linear gradient conditions (flow rate 0.7 mL/min) on a reverse-phase Zorbax XDB-C18 column (Agilent Technologies, Santa Clara, CA, USA) maintained at 40 °C. […] HPLC-MSMS data were acquired using Analyst (v 1.6.3, SCIEX, Concord, ON, Canada) and analyzed with MultiQuant software (v 3.0.3, SCIEX, Concord, ON, Canada). […] No peaks were detected in blank mouse plasma at the retention time with the specific ion settings for each compound. […] Positive controls spiked in-house and prepared by an external laboratory during a sample exchange program were included in all runs.

[4] = ART-naïve, Switch study, ART-experienced, virologically suppressed, CAB/rilpivirin LA every 4 weeks, initial injection 600 mg IM
[5] = ART-naïve, Switch study, ART-experienced, virologically suppressed, CAB/rilpivirin LA every 4 weeks, oral 30 mg once daily
[6] = Healthy Participants (Females), 30 mg oral phase, 600 mg LA CAB every 12 weeks, 1st injection
[7] = Healthy Participants (Females), 30 mg oral phase, 600 mg LA CAB every 12 weeks, 2nd injection
[8] = Healthy Participants (Females), 30 mg oral phase, 600 mg LA CAB every 12 weeks, 3rd injection
[9] = Healthy Participants (Females), 30 mg oral phase, 600 mg LA CAB every 12 weeks, 4th injection
[10] = Healthy Participants (Females), 30 mg oral phase, 600 mg LA CAB every 12 weeks, 5th injection
[11] = Healthy Participants (Females), 30 mg oral phase, 800 mg LA CAB every 12 weeks, 1st injection
[12] = Healthy Participants (Females), 30 mg oral phase, 800 mg LA CAB every 12 weeks, 2nd injection
[13] = Healthy Participants (Females), 30 mg oral phase, 800 mg LA CAB every 12 weeks, 3rd injection
[14] = Healthy Participants (Males), 30 mg oral phase, 600 mg LA CAB every 12 weeks, 1st injection
[15] = Healthy Participants (Males), 30 mg oral phase, 600 mg LA CAB every 12 weeks, 2nd injection
[16] = Healthy Participants (Males), 30 mg oral phase, 600 mg LA CAB every 12 weeks, 3rd injection
[17] = Healthy Participants (Males), 30 mg oral phase, 600 mg LA CAB every 12 weeks, 4th injection
[18] = Healthy Participants (Males), 30 mg oral phase, 600 mg LA CAB every 12 weeks, 5th injection
[19] = Healthy Participants (Males), 30 mg oral phase, 800 mg LA CAB every 12 weeks, 1st injection, ref 28
[20] = Healthy Participants (Males), 30 mg oral phase, 800 mg LA CAB every 12 weeks, 1st injection, ref 29
[21] = Healthy Participants (Males), 30 mg oral phase, 800 mg LA CAB every 12 weeks, 2nd injection, ref 28
[22] = Healthy Participants (Males), 30 mg oral phase, 800 mg LA CAB every 12 weeks, 2nd injection, ref 29
[23] = Healthy Participants (Males), 30 mg oral phase, 800 mg LA CAB every 12 weeks, 3rd injection, ref 28
[24] = Healthy Participants (Males), 30 mg oral phase, 800 mg LA CAB every 12 weeks, 3rd injection, ref 29
[25] = Healthy Participants, oral lead-in followed by LA CAB IM or SC injection: 30 mg, with Rilpivirine LA IM monthly
[26] = Healthy Participants, oral lead-in followed by LA CAB injection: 200 mg IM, with Rilpivirine LA IM monthly
[27] = Healthy Participants, oral lead-in followed by LA CAB injection: 200 mg SC, with Rilpivirine LA IM monthly
[28] = Healthy Participants, oral lead-in followed by LA CAB injection: 400 mg IM, with Rilpivirine LA IM monthly
[29] = Healthy Participants, oral lead-in followed by LA CAB injection: 800 mg IM, with Rilpivirine LA IM monthly
[30] = Healthy Participants, repeat oral dose 5 mg
[31] = Healthy Participants, repeat oral dose 10 mg
[32] = Healthy Participants, repeat oral dose 25 mg
[33] = Healthy Participants, single oral dose 5 mg
[34] = Healthy Participants, single oral dose 10 mg
[35] = Healthy Participants, single oral dose 25 mg
[36] = Healthy Participants, single oral dose 50 mg
[37] = Participants with HIV, repeat oral dose 30 mg
[38] = Participants with HIV, single oral dose 5 mg
[39] = CAB 0.5 mg/kg (1×) oral gavage once daily GD11.5-GD15.5 with TDF 50 mg/kg + FTC 33.3 mg/kg
[40] = CAB 1.5 mg/kg (3×) oral gavage once daily GD11.5-GD15.5 with TDF 50 mg/kg + FTC 33.3 mg/kg
[41] = CAB 5 mg/kg (10×) oral gavage once daily GD11.5-GD15.5 with TDF 50 mg/kg + FTC 33.3 mg/kg

C[C@H]1CO[C@@H]2Cn3cc(C(=O)NCc4ccc(F)cc4F)c(=O)c(O)c3C(=O)N12 [CAB, cabotegravir]
Fetal toxicities (pregnant rabbits): no drug-related fetal toxicities
Human Plasma Levels Cmax [1, 4]: 8000 ng/mL
Human Plasma Levels Cmin [1, 4]: 1500 ng/mL
Human Plasma Levels Cmin ([1]; ART-naïve, Switch study, ART-experienced, virologically suppressed, CAB/rilpivirin LA every 4 weeks, monthly injection 400 mg IM): 2800 ng/mL
Human Plasma Levels Cmax [1, 5]: 8000 ng/mL
Human Plasma Levels Cmin [1, 5]: 4600 ng/mL
Human Plasma Levels Cmax [1, 6]: 1580 ng/mL
Human Plasma Levels Cmin [1, 6]: 1330 ng/mL
Human Plasma Levels Cmax [1, 7]: 2960 ng/mL
Human Plasma Levels Cmin [1, 7]: 1820 ng/mL
Human Plasma Levels Cmax [1, 8]: 3460 ng/mL
Human Plasma Levels Cmin [1, 8]: 2040 ng/mL
Human Plasma Levels Cmax [1, 9]: 3330 ng/mL
Human Plasma Levels Cmin [1, 9]: 2060 ng/mL
Human Plasma Levels Cmax [1, 10]: 3660 ng/mL
Human Plasma Levels Cmin [1, 10]: 2030 ng/mL
Human Plasma Levels Cmax [1, 11]: 1890 ng/mL
Human Plasma Levels Cmin [1, 11]: 950 ng/mL
Human Plasma Levels Cmax [1, 12]: 2290 ng/mL
Human Plasma Levels Cmin [1, 12]: 1350 ng/mL
Human Plasma Levels Cmax [1, 13]: 3010 ng/mL
Human Plasma Levels Cmin [1, 13]: 1650 ng/mL
Human Plasma Levels Cmax [1, 14]: 2510 ng/mL
Human Plasma Levels Cmin [1, 14]: 1790 ng/mL
Human Plasma Levels Cmax [1, 15]: 3900 ng/mL
Human Plasma Levels Cmin [1, 15]: 1290 ng/mL
Human Plasma Levels Cmax [1, 16]: 2960 ng/mL
Human Plasma Levels Cmin [1, 16]: 1110 ng/mL
Human Plasma Levels Cmax [1, 17]: 2960 ng/mL
Human Plasma Levels Cmin [1, 17]: 1460 ng/mL
Human Plasma Levels Cmax [1, 18]: 3820 ng/mL
Human Plasma Levels Cmin [1, 18]: 1680 ng/mL
Human Plasma Levels Cmax [1, 19]: 4260 ng/mL
Human Plasma Levels Cmin [1, 19]: 302 ng/mL
Human Plasma Levels Cmax [1, 20]: 2670 ng/mL
Human Plasma Levels Cmin [1, 20]: 490 ng/mL
Human Plasma Levels Cmax [1, 21]: 5220 ng/mL
Human Plasma Levels Cmin [1, 21]: 331 ng/mL
Human Plasma Levels Cmax [1, 22]: 2570 ng/mL
Human Plasma Levels Cmin [1, 22]: 780 ng/mL
Human Plasma Levels Cmax [1, 23]: 4910 ng/mL
Human Plasma Levels Cmin [1, 23]: 387 ng/mL
Human Plasma Levels Cmax [1, 24]: 3390 ng/mL
Human Plasma Levels Cmin [1, 24]: 820 ng/mL
Human Plasma Levels Cmax ([1]; Healthy Participants, IM (gluteal) injection 100 mg IM): 200 ng/mL
Human Plasma Levels Cmax ([1]; Healthy Participants, IM (gluteal) injection 200 mg IM): 300 ng/mL
Human Plasma Levels Cmax ([1]; Healthy Participants, IM (gluteal) injection 400 mg (200 mg × 2)): 1400 ng/mL
Human Plasma Levels Cmax ([1]; Healthy Participants, IM (gluteal) injection 400 mg IM): 700 ng/mL
Human Plasma Levels Cmax ([1]; Healthy Participants, IM (gluteal) injection 800 mg IM (400 mg × 2)): 3300 ng/mL
Human Plasma Levels Cmax ([1]; Healthy Participants, SC (abdominal) injection 100 mg): 200 ng/mL
Human Plasma Levels Cmax ([1]; Healthy Participants, SC (abdominal) injection 200 mg): 500 ng/mL
Human Plasma Levels Cmax ([1]; Healthy Participants, SC (abdominal) injection 400 mg (200 mg × 2)): 900 ng/mL
Human Plasma Levels Cmax [1, 25]: 8300 ng/mL
Human Plasma Levels Cmin [1, 25]: 4900 ng/mL
Human Plasma Levels Cmax [1, 26]: 2200 ng/mL
Human Plasma Levels Cmin [1, 26]: 1610 ng/mL
Human Plasma Levels Cmax [1, 27]: 2100 ng/mL
Human Plasma Levels Cmin [1, 27]: 1660 ng/mL
Human Plasma Levels Cmax [1, 28]: 4400 ng/mL
Human Plasma Levels Cmin [1, 28]: 3270 ng/mL
Human Plasma Levels Cmax [1, 29]: 3300 ng/mL
Human Plasma Levels Cmin [1, 29]: 1100 ng/mL
Human Plasma Levels Cmax [1, 30]: 2080 ng/mL
Human Plasma Levels Cmin [1, 30]: 1060 ng/mL
Human Plasma Levels Cmax [1, 31]: 4290 ng/mL
Human Plasma Levels Cmin [1, 31]: 2390 ng/mL
Human Plasma Levels Cmax [1, 32]: 9470 ng/mL
Human Plasma Levels Cmin [1, 32]: 5400 ng/mL
Human Plasma Levels Cmax [1, 33]: 1150 ng/mL
Human Plasma Levels Cmin [1, 33]: 420 ng/mL
Human Plasma Levels Cmax [1, 34]: 2150 ng/mL
Human Plasma Levels Cmin [1, 34]: 830 ng/mL
Human Plasma Levels Cmax [1, 35]: 4380 ng/mL
Human Plasma Levels Cmin [1, 35]: 1930 ng/mL
Human Plasma Levels Cmax [1, 36]: 8570 ng/mL
Human Plasma Levels Cmin [1, 36]: 3820 ng/mL
Human Plasma Levels Cmin ([1]; Participants with HIV, CAB/rilpivirine LA injectable, repeat-dose every 4 week 400 mg): 2740 ng/mL
Human Plasma Levels Cmin ([1]; Participants with HIV, CAB/rilpivirine LA injectable, repeat-dose every 8 week 600 mg): 1670 ng/mL
Human Plasma Levels Cmax ([1]; Participants with HIV, repeat oral dose 5 mg): 1020 ng/mL
Human Plasma Levels Cmax [1, 37]: 6370 ng/mL
Human Plasma Levels Cmin [1, 37]: 3280 ng/mL
Human Plasma Levels Cmax [1, 38]: 520 ng/mL
Human Plasma Levels Cmin [1, 38]: 230 ng/mL
Human Plasma Levels Cmin ([1]; Participants with HIV, single oral dose 30 mg (Ctau)): 1250 ng/mL
Human Plasma Levels Cmax ([1]; Participants with HIV, single oral dose 30 mg): 2840 ng/mL
Efficacy against intrarectal SHIV [2]: protective efficacy
Efficacy against repeated high-dose intravaginal SHIV [2]: protective efficacy
concentration at 24 h [3, 39]: 260 ng/mL
concentration at 24 h [3, 40]: 480 ng/mL
concentration at 24 h [3, 41]: ~1300 ng/mL
Cmax at 1 h [3, 39]: 913 ng/mL
Cmax at 1 h [3, 40]: 1270 ng/mL
Cmax at 1 h [3, 41]: 3580 ng/mL
Plasma Concentration 24 h (Cmin) [3, 41]: 1306 (402) ng/mL
